Source: US10722484B2, “Methods of cancer treatment” (K-Gen, Inc., priority 2016, dated 2020)
Like-named read-outs stand apart in the source and are kept apart here. Values belong to the molecule of their own block, whether it stands above or below them.

Legend:
[1] = system: A549 lung cancer cell line; test: Combination viability/proliferation assays (384-well IC50 ratio, 96-well MacSynergy II); format: cell-based; settings: for Ratio ([…] DMSO IC50/combination IC50) / Combination in A549: K101A (synergism/antagonism) / Combination in A549: K101E (synergism/antagonism) / Combination in A549: K102 (synergism/antagonism) / concentration range in which the antagonistic effect was detected: A549; for Ratio ([…] DMSO IC50/combination IC50): NC: no change; for effect in combination with the PKC activator compounds in inhibiting the growth of A549 cells: PKC activator compounds (K101A, K101E, K102); for Combination in A549: K101A (synergism/antagonism): agent assayed in combination with K101A; for Combination in A549: K101A (synergism/antagonism) / Combination in A549: K102 (synergism/antagonism): * 2-3 concentrations, # full concentration ranges; for Combination in A549: K101E (synergism/antagonism): agent assayed in combination with K101E; for Combination in A549: K102 (synergism/antagonism): agent assayed in combination with K102; for concentration range in which the antagonistic effect was detected: with PKC activator compounds (FIG. 10A, 10B), trametinib full range tested, erlotinib lower half of range tested
Description: A 96-well MacSynergy II format for combination test was also used. […] The analysis was done with the SQRT(Data) scale and the four parameter Hill curve was fitted using XLfit5.1 (the MacSynergy II Excel Spreadsheet) for the inhibition data. Synergy (positive number) or Antagonism (negative number) volumes were calculated. […] Three-dimensional MacSynergy II graphs were generated where positive values indicated synergism and negative values indicated antagonism.

A549 = test: Proliferation assay (CellTiter Glo); format: cell-based; settings: 96 hours
Description: (§1) The dose range for most compounds was 4.6 nM-30 μM. The dose ranges for some compounds were adjusted downward to 0.46 nM-3 μM or 0.08 nM-0.5 μM or 0.03 nM-0.2 μM. […] The results are shown in Tables 3-6 for pancreatic cancer, lung cancer, colon/gastric cancer, and leukemia.

AGS = test: Proliferation assay (CellTiter Glo); format: cell-based; settings: 96 hours
Description: as §1

Capan-1 = test: Proliferation assay (CellTiter Glo); format: cell-based; settings: 96 hours
Description: as §1

H358 = test: Proliferation assay (CellTiter Glo); format: cell-based; settings: HE58, 96 hours
Description: as §1

H441 = test: Proliferation assay (CellTiter Glo); format: cell-based; settings: 96 hours
Description: as §1

H727 = test: Proliferation assay (CellTiter Glo); format: cell-based; settings: 96 hours
Description: as §1

HCT116 = test: Proliferation assay (CellTiter Glo); format: cell-based; settings: 96 hours
Description: as §1

KP-4 = test: Proliferation assay (CellTiter Glo); format: cell-based; settings: 96 hours
Description: as §1

LS180 = test: Proliferation assay (CellTiter Glo); format: cell-based; settings: 96 hours
Description: as §1

SW620 = test: Proliferation assay (CellTiter Glo); format: cell-based; settings: 96 hours
Description: as §1

MiaPaCa-2 = test: Proliferation assay (CellTiter Glo); format: cell-based; settings: 96 hours
HL60 = test: Proliferation assay (CellTiter Glo); format: cell-based, human; settings: 96 hours
Description: as §1

THP1 = test: Proliferation assay (CellTiter Glo); format: cell-based, human; settings: 96 hours
Description: as §1

BxPC-3 = test: Proliferation assay (CellTiter Glo); format: cell-based; settings: BxPC-3 (RAS WT); 96 hours
Description: as §1
(§2) Other cancer cell lines having wild-type K-RAS status and K-RAS mutation at G12 were also screened using the PKC activator compounds. […] K104 was tested in a range of 0.03 nM-0.2 μM. […] The dose ranges were adjusted downward to 0.46 nM-3 μM for K102 and 0.08 nM-0.5 μM for K103 for some cell lines. The results of the screening of cancer cells lines with wild-type K-RAS status and K-RAS mutations at the G12 positions are presented in Table 7.

Colo205 = test: Proliferation assay (CellTiter Glo); format: cell-based; settings: Colo205 (RAS WT); 96 hours
Description: as §1, §2

H1915 = test: Proliferation assay (CellTiter Glo); format: cell-based; settings: H1915 (RAS WT); 96 hours
Description: as §1, §2

H838 = test: Proliferation assay (CellTiter Glo); format: cell-based; settings: H838 (RAS WT); 96 hours
Description: as §1, §2

HT29 = test: Proliferation assay (CellTiter Glo); format: cell-based; settings: HT29 (RAS WT); 96 hours
Description: as §1, §2

[2] = in combination with 0.0002 μM K102
[3] = in combination with 0.002 μM K102
[4] = in combination with 0.005 μM K101A
[5] = in combination with 0.02 μM K102
[6] = in combination with 0.05 μM K101A
[7] = in combination with 0.5 μM K101A, ratio >2 synergistic, <0.5 antagonistic

Ratio ([…] DMSO IC50/combination IC50) [1, 2]: 0.72 | Ratio ([…] DMSO IC50/combination IC50) [1, 3]: 0.76 | Ratio ([…] DMSO IC50/combination IC50) [1, 4]: 0.80 | Ratio ([…] DMSO IC50/combination IC50) [1, 5]: 0.69 | Ratio ([…] DMSO IC50/combination IC50) [1, 6]: 0.91 | Ratio ([…] DMSO IC50/combination IC50) [1, 7]: 0.97
SMILES: Nc1ccn([C@@H]2O[C@H](CO)[C@@H](O)C2(F)F)c(=O)n1 [Gemcitabine]
effect in combination with the PKC activator compounds in inhibiting the growth of A549 cells [1]: insignificant synergism or antagonism | Combination in A549: K101A (synergism/antagonism) [1]: None | Combination in A549: K101E (synergism/antagonism) [1]: None | Combination in A549: K102 (synergism/antagonism) [1]: None

Ratio ([…] DMSO IC50/combination IC50) [1, 2]: 0.72 | Ratio ([…] DMSO IC50/combination IC50) [1, 3]: 0.80 | Ratio ([…] DMSO IC50/combination IC50) [1, 4]: 1.36 | Ratio ([…] DMSO IC50/combination IC50) [1, 5]: 0.44 | Ratio ([…] DMSO IC50/combination IC50) [1, 6]: 1.10 | Ratio ([…] DMSO IC50/combination IC50) [1, 7]: 0.50
SMILES: CC(=O)Nc1cccc(-n2c(=O)n(C3CC3)c(=O)c3c(Nc4ccc(I)cc4F)n(C)c(=O)c(C)c32)c1 [Trametinib]
concentration range in which the antagonistic effect was detected [1]: 0.003 to 0.2 µM

SMILES: CC(=O)OC12CC(C)C3(O)C(C4OC4(CO)CC4(O)C(O)C(C)=CC43)C1C2(C)C (stereo not drawn) [Compound K101D]
EC50 (A549; A549 (K-RAS: G12S), absolute EC50, read-out: Ab EC50): > 30 µM | Top Inhibition % (A549; A549, % of top inhibition): 44.4% | EC50 (A549; A549, relative EC50, read-out: Re EC50): 7.72 µM | EC50 (AGS; AGS (gastric, K-RAS: G12D), absolute EC50, read-out: Ab EC50): > 30 µM | Top Inhibition % (AGS; AGS, % of top inhibition): 13.5% | EC50 (Capan-1; Capan-1 (K-RAS: G12V), absolute EC50, read-out: Ab EC50): > 30 µM | Top Inhibition % (Capan-1; Capan-1, % of top inhibition): 22.3% | EC50 (Capan-1; Capan-1, relative EC50, read-out: Re EC50): 8.66 µM | Top Inhibition % (H358; % of top inhibition): 23.0% | EC50 (H358; absolute EC50, read-out: Ab EC50): > 30 µM | EC50 (H358; relative EC50, read-out: Re EC50): 11 µM | EC50 (H441; H441 (K-RAS: G12V), absolute EC50, read-out: Ab EC50): > 30 µM | Top Inhibition % (H441; H441, % of top inhibition): 11.6% | EC50 (H727; H727 (K-RAS: G12V), absolute EC50, read-out: Ab EC50): > 30 µM | Top Inhibition % (H727; H727, % of top inhibition): 31.8% | EC50 (H727; H727, relative EC50, read-out: Re EC50): 8.37 µM | EC50 (HCT116; HCT116 (K-RAS: G13D), absolute EC50, read-out: Ab EC50): > 30 µM | Top Inhibition % (HCT116; HCT116, % of top inhibition): 3.0% | EC50 (KP-4; KP-4 (K-RAS: G12C), absolute EC50, read-out: Ab EC50): > 30 µM | Top Inhibition % (KP-4; KP-4, % of top inhibition): 47.9% | EC50 (KP-4; KP-4, relative EC50, read-out: Re EC50): 5.47 µM | EC50 (LS180; LS180 (K-RAS: G12D), absolute EC50, read-out: Ab EC50): > 30 µM | Top Inhibition % (LS180; LS180, % of top inhibition): 8.2% | EC50 (SW620; SW620 (K-RAS: G12V), absolute EC50, read-out: Ab EC50): > 30 µM | Top Inhibition % (SW620; SW620, % of top inhibition): 0.0% | EC50 (MiaPaCa-2; MiaPaCa-2 (K-RAS: G12C), absolute EC50, read-out: Ab EC50): > 30 µM | Top Inhibition % (MiaPaCa-2; MiaPaCa-2, % of top inhibition): 18.6% | EC50 (HL60; HL60 (N-RAS: Q61L), absolute EC50, read-out: Ab EC50): > 30 µM | Top Inhibition % (HL60; HL60, % of top inhibition): 14.4% | EC50 (THP1; THP1 (N-RAS: G12D), absolute EC50, read-out: Ab EC50): > 30 µM | Top Inhibition % (THP1; THP1, % of top inhibition): 33.6% | EC50 (THP1; THP1, relative EC50, read-out: Re EC50): 14 µM | Top Inhibition % (BxPC-3): 37.49% | Top Inhibition % (Colo205): 42.3% | Top Inhibition % (H1915): 28.6% | Top Inhibition % (H838): 27.7% | Top Inhibition % (HT29): 10.0%

SMILES: CN[C@@H]1C[C@H]2O[C@@](C)([C@@H]1OC)n1c3ccccc3c3c4c(c5c6ccccc6n2c5c31)C(=O)NC4 [STS, staurosporine]
effect in combination with the PKC activator compounds in inhibiting the growth of A549 cells [1]: synergistic effects | Combination in A549: K101A (synergism/antagonism) [1]: Synergism | Combination in A549: K101E (synergism/antagonism) [1]: Synergism | Combination in A549: K102 (synergism/antagonism) [1]: Synergism

SMILES: C#Cc1cccc(Nc2ncnc3cc(OCCOC)c(OCCOC)cc23)c1 [Erlotinib]
concentration range in which the antagonistic effect was detected [1]: 0.3 to 2.5 µM | effect in combination with the PKC activator compounds in inhibiting the growth of A549 cells [1]: Moderate antagonistic effect

SMILES: CC(C)C[C@H](NC(=O)[C@H](CCc1ccccc1)NC(=O)CN1CCOCC1)C(=O)N[C@@H](Cc1ccccc1)C(=O)N[C@@H](CC(C)C)C(=O)[C@@]1(C)CO1 [Carfilzomib]
effect in combination with the PKC activator compounds in inhibiting the growth of A549 cells [1]: insignificant synergism or antagonism | Combination in A549: K101A (synergism/antagonism) [1]: None | Combination in A549: K102 (synergism/antagonism) [1]: None
